# Tested on: yeast genes (expressed mRNA)
# Experiment: DNA chip measurement of expressed mRNA of yeast genes after culture with a toxic chemical substance
# Assay type: cell-based, Saccharomyces cerevisiae S288C
# Settings: for level of expressed mRNA in the presence of chemical substance / level in the absence of chemical substance: cultured two hours with the chemical substance; for The level of expressed mRNA in the presence of chemical substance/The level of expressed mRNA in the absence of chemical substance: cultured two hours with substance
# Method in brief: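 Expression is given as treated/untreated fluorescence ratio on a whole-genome yeast DNA chip, a ratio of two or more being significant. Log-phase S288C cultures in YPD at 25 °C received the chemical for 2 h at a dose that slows growth without killing. mRNA was reverse-transcribed with Cy3- or Cy5-dUTP.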
compound,measurement,setting,value
"CCCCCCCCCCCCc1ccc(S(=O)(=O)[O-])cc1.[Na+] [(17), Sodium dodecylbenzosulfonate]",level of expressed mRNA in the presence of chemical substance / level in the absence of chemical substance,yeast gene YDR128W,0.9
same,level of expressed mRNA in the presence of chemical substance / level in the absence of chemical substance,yeast gene YDR133C,0.6
same,level of expressed mRNA in the presence of chemical substance / level in the absence of chemical substance,yeast gene YDR250C,0.9
same,level of expressed mRNA in the presence of chemical substance / level in the absence of chemical substance,yeast gene YDR278C,0.7
same,level of expressed mRNA in the presence of chemical substance / level in the absence of chemical substance,yeast gene YDR281C,1.5
same,The level of expressed mRNA in the presence of chemical substance/The level of expressed mRNA in the absence of chemical substance,yeast gene YDR330W,1.5
same,level of expressed mRNA in the presence of chemical substance / level in the absence of chemical substance,yeast gene YDR366C,1.2
same,The level of expressed mRNA in the presence of chemical substance/The level of expressed mRNA in the absence of chemical substance,yeast gene YDR411C,1.5
same,The level of expressed mRNA in the presence of chemical substance/The level of expressed mRNA in the absence of chemical substance,yeast gene YDR511W,1.3
same,The level of expressed mRNA in the presence of chemical substance/The level of expressed mRNA in the absence of chemical substance,yeast gene YDR545W,0.9
same,The level of expressed mRNA in the presence of chemical substance/The level of expressed mRNA in the absence of chemical substance,yeast gene YEL001C,0.7
same,The level of expressed mRNA in the presence of chemical substance/The level of expressed mRNA in the absence of chemical substance,yeast gene YER004W,1.4
same,The level of expressed mRNA in the presence of chemical substance/The level of expressed mRNA in the absence of chemical substance,yeast gene YER035W,2.2
same,The level of expressed mRNA in the presence of chemical substance/The level of expressed mRNA in the absence of chemical substance,yeast gene YER079W,1.0
same,The level of expressed mRNA in the presence of chemical substance/The level of expressed mRNA in the absence of chemical substance,yeast gene YER106W,0.8
same,The level of expressed mRNA in the presence of chemical substance/The level of expressed mRNA in the absence of chemical substance,yeast gene YER158C,1.6
same,The level of expressed mRNA in the presence of chemical substance/The level of expressed mRNA in the absence of chemical substance,yeast gene YER163C,1.2
same,The level of expressed mRNA in the presence of chemical substance/The level of expressed mRNA in the absence of chemical substance,yeast gene YER175C,0.9
same,The level of expressed mRNA in the presence of chemical substance/The level of expressed mRNA in the absence of chemical substance,yeast gene YFL006W,1.0
same,The level of expressed mRNA in the presence of chemical substance/The level of expressed mRNA in the absence of chemical substance,yeast gene YFL010C,1.9
same,The level of expressed mRNA in the presence of chemical substance/The level of expressed mRNA in the absence of chemical substance,yeast gene YFL024C,0.9
same,The level of expressed mRNA in the presence of chemical substance/The level of expressed mRNA in the absence of chemical substance,yeast gene YFL032W,1.7
same,level of expressed mRNA in the presence of chemical substance / level in the absence of chemical substance,yeast gene YFR026C,1.1
same,The level of expressed mRNA in the presence of chemical substance/The level of expressed mRNA in the absence of chemical substance,yeast gene YGL037C,1.3
same,The level of expressed mRNA in the presence of chemical substance/The level of expressed mRNA in the absence of chemical substance,yeast gene YGL047W,1.1
same,The level of expressed mRNA in the presence of chemical substance/The level of expressed mRNA in the absence of chemical substance,yeast gene YGL053W,2.2
same,level of expressed mRNA in the presence of chemical substance / level in the absence of chemical substance,yeast gene YGL088W,0.5
same,The level of expressed mRNA in the presence of chemical substance/The level of expressed mRNA in the absence of chemical substance,yeast gene YGL121C,2.7
same,The level of expressed mRNA in the presence of chemical substance/The level of expressed mRNA in the absence of chemical substance,yeast gene YGL199C,1.2
same,level of expressed mRNA in the presence of chemical substance / level in the absence of chemical substance,yeast gene YGR038W,1.1
same,The level of expressed mRNA in the presence of chemical substance/The level of expressed mRNA in the absence of chemical substance,yeast gene YGR101W,1.0
same,The level of expressed mRNA in the presence of chemical substance/The level of expressed mRNA in the absence of chemical substance,yeast gene YGR110W,0.9
same,The level of expressed mRNA in the presence of chemical substance/The level of expressed mRNA in the absence of chemical substance,yeast gene YGR130C,1.3
same,level of expressed mRNA in the presence of chemical substance / level in the absence of chemical substance,yeast gene YGR139W,1.0
same,The level of expressed mRNA in the presence of chemical substance/The level of expressed mRNA in the absence of chemical substance,yeast gene YGR154C,1.0
same,The level of expressed mRNA in the presence of chemical substance/The level of expressed mRNA in the absence of chemical substance,yeast gene YGR221C,1.3
same,level of expressed mRNA in the presence of chemical substance / level in the absence of chemical substance,yeast gene YGR243W,2.1
same,level of expressed mRNA in the presence of chemical substance / level in the absence of chemical substance,yeast gene YGR293C,0.8
same,level of expressed mRNA in the presence of chemical substance / level in the absence of chemical substance,yeast gene YHL006C,1.1
same,level of expressed mRNA in the presence of chemical substance / level in the absence of chemical substance,yeast gene YHR095W,0.8
same,level of expressed mRNA in the presence of chemical substance / level in the absence of chemical substance,yeast gene YHR105W,1.0
same,The level of expressed mRNA in the presence of chemical substance/The level of expressed mRNA in the absence of chemical substance,yeast gene YHR138C,5.0
same,level of expressed mRNA in the presence of chemical substance / level in the absence of chemical substance,yeast gene YHR181W,0.9
same,The level of expressed mRNA in the presence of chemical substance/The level of expressed mRNA in the absence of chemical substance,yeast gene YHR199C,1.1
same,The level of expressed mRNA in the presence of chemical substance/The level of expressed mRNA in the absence of chemical substance,yeast gene YIL023C,1.2
same,The level of expressed mRNA in the presence of chemical substance/The level of expressed mRNA in the absence of chemical substance,yeast gene YIL041W,0.8
same,The level of expressed mRNA in the presence of chemical substance/The level of expressed mRNA in the absence of chemical substance,yeast gene YIL087C,1.7
same,level of expressed mRNA in the presence of chemical substance / level in the absence of chemical substance,yeast gene YIL127C,0.7
same,level of expressed mRNA in the presence of chemical substance / level in the absence of chemical substance,yeast gene YJL017W,1.0
same,level of expressed mRNA in the presence of chemical substance / level in the absence of chemical substance,yeast gene YJL037W,1.3
same,The level of expressed mRNA in the presence of chemical substance/The level of expressed mRNA in the absence of chemical substance,yeast gene YJL057C,1.4
same,The level of expressed mRNA in the presence of chemical substance/The level of expressed mRNA in the absence of chemical substance,yeast gene YJL066C,1.4
same,The level of expressed mRNA in the presence of chemical substance/The level of expressed mRNA in the absence of chemical substance,yeast gene YJL082W,0.6

# — patent publication US20100041089A1, “IMPROVED METHOD FOR DETECTING CHEMICAL […]” (priority 2006, published 2010)
